Test system: 4T1-luc tumor models
Assay: In vivo bioluminescence/fluorescence imaging and kinetics in luciferase-expressing tumor models
Settings: mice, 150 mg/kg luciferin solution
Protocol: All the cell lines were modified for the luciferase reporter gene expression.
Trypsinization was stopped with medium containing 10% FBS. The cells were centrifuged, and the floating cells in the supernatant were discarded. The cell pellet was resuspended in medium containing 10% FBS and mixed thoroughly. Trypan blue staining was used to determine the number of viable cells. The resuspended cells were centrifuged, and cell dilutions of 2±10^6 cells/100 μl were prepared in growth medium. The 100 μl of cell suspension was injected subcutaneously into the right flank area of each mouse. The mice were randomized into control and treatment groups when xenografts were palpable with a tumor size of 50 mm^3.
The orthotopic tumor model was used to mimic the cancer in humans in athymic nu/nu mice (6-week old). […] Only cell suspensions of >90% viability, as determined by trypan blue exclusion, were used. […]
Nu/Nu mice were anesthetized and tumor cells (2 million per mouse) were injected via tail vein. Only cell suspensions of >90% viability, as determined by trypan blue exclusion, were used. […]
Imaging was performed with an IVIS Spectrum (16). Bioluminescent signals were quantified using Living Image® software (Caliper Life Sciences., Alameda, CA.).
Imaging was performed with an IVIS SpectrumCT (35). Bioluminescent signals were quantified using Living Image® software (Caliper Life Sciences., Alameda, CA.).

O=C(O)[C@H]1CSC(c2nc3ccc(O)cc3s2)=N1 [Free luciferin, luciferin]
time to clearance from circulation: ≤ 60 min
